Here are results for five substances from US5698669A, “Tri-arginine insulins” (Eli Lilly and Company, priority 1995, dated 1997).

The subject of data set [1] is New Zealand White rabbits. Put plainly: Blood glucose in fasted rabbits after subcutaneous injection of 40 U/ml insulin solutions. In kind it is in vivo, rabbit. The settings on record: for Percent of Original Blood Glucose: added zinc 0 mg/ml, 0.2 U/kg s.c., rabbits, n = 10; for hypoglycemic activity: statement in words, animal model.
Protocol: Solutions were prepared containing various amounts of zinc (0-2.4 mg/ml) in the form of zinc chloride. Glacial acetic acid was used to solublize each of the solutions at a final pH range of pH 4-6.
New Zealand White rabbits, mostly female, all weighing 2.7-4 kg, 0.5-4 years of age and fasted 16 hours prior to administration of sample were used for testing.
At various times, 100 μl volumes of blood were obtained from the marginal ear veins, mixed with 900 μl volumes of anticoagulant (EDTA-sodium fluoride) and analyzed for glucose content. The glucose values were standardized to reflect percent of original blood glucose measured prior to sample injection.
For the next data set, the target named is human proinsulin (human) (UniProt P01308).
The conditions of data set [2]: standardized value used for formulating 40 U/ml solutions; cited from earlier work.
In data set [3] the target is des(64) human proinsulin (human) (UniProt P01308).

As to “Des(64) HPI: split(64) proinsulin wherein Lys-64 is removed”, the “Percent of Original Blood Glucose” value turned out to be 99.6% in data set [1] (4 hours after injection) and 90.0% in data set [1] (6 hours after injection). In addition, in data set [1], the hypoglycemic activity result is on record as “hypoglycemic activity of its own”.
In the data set with human proinsulin (human), “Pseudomonas aeruginosa Endopeptidase-Lys-C (Promega) (enzyme)” displayed a conversion of human proinsulin to split(64) proinsulin (preparative HPLC, yield of product) of 237 mg.
As for “Split(64) HPI: human proinsulin wherein the peptide bond between Lys-64 and Arg-65 is broken”, the hypoglycemic activity entry in data set [1] is on record as “hypoglycemic activity of its own”.
Take “human insulin: natural human insulin, reference for biopotency”: in data set [2], the “standardized value (potency per mass)” value is recorded as 28.85 U/mg.
In the case of “pork trypsin (Sigma) (from UniProt P00761) (enzyme)”, the conversion of des(64) human proinsulin to tri-arg insulin (preparative HPLC, yield of product) in data set [3] turned out to be 0.94 g.
